# Source: publication PMC6631223, “Chain-Branched Polyhydroxylated Octahydro-1H-Indoles as Potential Leads against Lysosomal Storage Diseases” (Pharmaceuticals, 2019)
# Marks after values point to notes of the source that are not given here.
# What was measured:
# Assay type in all cases: biochemical
# [1] = tested on: Rat intestinal maltase; test: Glycosidase inhibition: rat intestinal maltase; conditions: maltose, pH 6.8, 1000 μM
# Source text: (§1) The enzymes α-glucosidase (from yeast, rice), β-glucosidase (from almonds, bovine liver), α-galactosidase (from coffee beans), β-galactosidase (from bovine liver), α-mannosidase (from jack beans), β-mannosidase (from snails), α-L-fucosidase (from bovine kidney), α-L-rhamnosidase (from Penicillium decumbens), β-glucuronidases (from Escherichia coli), α,α-trehalase (from porcine kidney), amyloglucosidase (from Aspergillus niger), p-nitrophenyl glycosides, and various disaccharides were purchased from Sigma-Aldrich Co. Brush border membranes were prepared from the rat small intestine according to the method of Kessler et al., and were assayed at pH 6.8 for rat intestinal maltase using maltose. For rat intestinal glucosidases and porcine kidney trehalase activities, the reaction mixture (0.2 mL) contained 25 mM substrate and the appropriate amount of enzyme, and the incubations were performed for 10 min at 37 °C. The reaction was stopped by heating at 100 °C for 3 min. After centrifugation (600 g; 10 min), 0.035 mL of the resulting reaction mixture were added to 2.1 mL of the Glucose CII-test Wako (Wako Pure Chemical Ind., Osaka, Japan). The absorbance at 505 nm was measured to determine the amount of the released D-glucose. Other glycosidase activities were determined using an appropriate p-nitrophenyl glycoside as substrate at the optimum pH of each enzyme. The reaction mixture (0.2 mL) contained 2 mM of the substrate and the appropriate amount of enzyme. The reaction was stopped by adding 0.4 mL of 400 mM Na2CO3. The released p-nitrophenol was measured spectrometrically at 400 nm.
# [2] = molecular target: T1, α-Galactosidase (coffee beans) (Coffea arabica, UniProt Q42656); test: Glycosidase inhibition: α-galactosidase (coffee beans); conditions: read-out: inhibition % at 1000 μM
# T1 construct: purchased Sigma-Aldrich Co
# T1 sequence (Q42656 16-378): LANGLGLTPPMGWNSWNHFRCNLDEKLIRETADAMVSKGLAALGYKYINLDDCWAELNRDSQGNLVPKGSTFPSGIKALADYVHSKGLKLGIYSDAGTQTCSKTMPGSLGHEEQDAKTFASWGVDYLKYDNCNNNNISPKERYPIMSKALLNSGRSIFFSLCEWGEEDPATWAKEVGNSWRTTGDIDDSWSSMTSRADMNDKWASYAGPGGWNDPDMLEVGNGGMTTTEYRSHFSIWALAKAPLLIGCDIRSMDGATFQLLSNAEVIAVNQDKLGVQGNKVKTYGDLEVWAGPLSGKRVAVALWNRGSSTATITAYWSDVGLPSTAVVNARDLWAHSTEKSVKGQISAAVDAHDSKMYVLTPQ
# Source text: as §1
# [3] = molecular target: T2, α-Mannosidase (jack bean) (Canavalia ensiformis, UniProt C0HJB3); test: Glycosidase inhibition: α-mannosidase (jack bean)
# T2 construct: purchased Sigma-Aldrich Co
# T2 sequence (C0HJB3 1-981): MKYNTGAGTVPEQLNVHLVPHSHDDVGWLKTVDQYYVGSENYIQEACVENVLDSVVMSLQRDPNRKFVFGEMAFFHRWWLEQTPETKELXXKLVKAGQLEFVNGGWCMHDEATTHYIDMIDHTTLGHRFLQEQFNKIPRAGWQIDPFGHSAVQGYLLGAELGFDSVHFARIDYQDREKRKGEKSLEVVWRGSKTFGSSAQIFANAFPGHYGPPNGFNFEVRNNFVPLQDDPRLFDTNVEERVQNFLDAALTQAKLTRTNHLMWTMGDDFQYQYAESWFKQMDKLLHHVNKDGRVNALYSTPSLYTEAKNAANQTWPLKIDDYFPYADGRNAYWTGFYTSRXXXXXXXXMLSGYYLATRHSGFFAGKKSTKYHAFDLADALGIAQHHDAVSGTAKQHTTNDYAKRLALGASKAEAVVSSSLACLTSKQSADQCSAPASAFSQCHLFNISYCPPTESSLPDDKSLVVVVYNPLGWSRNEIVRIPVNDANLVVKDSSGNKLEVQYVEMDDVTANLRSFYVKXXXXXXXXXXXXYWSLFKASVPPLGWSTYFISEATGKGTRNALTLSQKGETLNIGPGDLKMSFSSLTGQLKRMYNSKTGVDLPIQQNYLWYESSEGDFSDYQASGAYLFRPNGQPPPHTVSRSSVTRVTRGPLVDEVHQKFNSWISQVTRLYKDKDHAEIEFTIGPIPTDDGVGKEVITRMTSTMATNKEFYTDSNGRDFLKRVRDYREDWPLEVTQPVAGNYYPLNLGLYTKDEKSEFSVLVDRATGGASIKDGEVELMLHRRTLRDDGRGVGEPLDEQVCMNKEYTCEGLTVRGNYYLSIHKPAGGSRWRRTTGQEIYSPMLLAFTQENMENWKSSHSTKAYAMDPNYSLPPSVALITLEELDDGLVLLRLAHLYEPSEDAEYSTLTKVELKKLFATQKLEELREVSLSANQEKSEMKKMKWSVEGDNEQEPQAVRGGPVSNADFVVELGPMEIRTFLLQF
# Source text: as §1, with “After centrifugation (600 g; 10 min), 0.035 mL of the resulting reaction mixture were added to 2.1 mL of the Glucose CII-test Wako (Wako Pure Chemical Ind., Osaka, Japan).” left out, “The reaction mixture (0.2 mL) contained 2 mM of the substrate and the appropriate amount of enzyme. The reaction was stopped by adding 0.4 mL of 400 mM Na2CO3.” left out
# [4] = molecular target: T3, α-L-Fucosidase (bovine kidney) (Bos taurus, UniProt Q2KIM0); test: Glycosidase inhibition: α-L-fucosidase (bovine kidney); conditions: read-out: inhibition % at 1000 μM
# T3 construct: purchased Sigma-Aldrich Co; host or cells: bovine kidney
# T3 sequence (Q2KIM0 23-468): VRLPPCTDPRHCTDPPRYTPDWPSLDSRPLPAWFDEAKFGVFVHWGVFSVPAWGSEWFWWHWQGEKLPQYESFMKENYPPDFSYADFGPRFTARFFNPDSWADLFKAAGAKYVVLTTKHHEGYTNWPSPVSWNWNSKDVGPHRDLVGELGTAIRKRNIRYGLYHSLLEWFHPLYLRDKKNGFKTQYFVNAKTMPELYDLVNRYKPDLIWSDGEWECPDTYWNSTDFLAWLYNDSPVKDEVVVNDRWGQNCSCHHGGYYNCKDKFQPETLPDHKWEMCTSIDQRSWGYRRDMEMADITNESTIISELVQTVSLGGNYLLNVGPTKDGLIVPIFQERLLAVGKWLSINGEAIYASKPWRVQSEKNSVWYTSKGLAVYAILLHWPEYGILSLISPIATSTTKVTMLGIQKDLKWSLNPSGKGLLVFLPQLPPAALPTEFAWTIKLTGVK
# Source text: as §1
# [5] = molecular target: T4, β-Glucronidase (E.coli) (Escherichia coli, UniProt P05804); test: Glycosidase inhibition: β-glucuronidase (E. coli); conditions: β-glucuronidase, E. coli; 1000 μM
# T4 construct: purchased Sigma-Aldrich Co
# T4 sequence (P05804 whole entry): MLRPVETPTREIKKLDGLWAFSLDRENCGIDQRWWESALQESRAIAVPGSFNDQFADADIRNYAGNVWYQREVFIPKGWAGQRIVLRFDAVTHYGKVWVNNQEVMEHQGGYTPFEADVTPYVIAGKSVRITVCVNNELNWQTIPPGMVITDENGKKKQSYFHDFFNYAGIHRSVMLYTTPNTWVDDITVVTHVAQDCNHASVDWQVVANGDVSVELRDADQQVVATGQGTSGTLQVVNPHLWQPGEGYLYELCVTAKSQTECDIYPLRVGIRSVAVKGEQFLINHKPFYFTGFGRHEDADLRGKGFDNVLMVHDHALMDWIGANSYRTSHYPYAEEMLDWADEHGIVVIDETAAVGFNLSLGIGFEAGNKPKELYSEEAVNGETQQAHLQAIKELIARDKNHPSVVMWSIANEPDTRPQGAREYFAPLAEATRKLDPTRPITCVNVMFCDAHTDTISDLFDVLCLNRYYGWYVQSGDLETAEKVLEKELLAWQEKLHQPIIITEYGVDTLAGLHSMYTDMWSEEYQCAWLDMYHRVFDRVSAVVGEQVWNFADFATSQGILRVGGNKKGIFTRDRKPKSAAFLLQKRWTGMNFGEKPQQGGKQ
# Source text: as §1
SMILES,inhibition % at 1000 μM [1] [% ^a],inhibition at 1000 µM [2] [%],inhibition at 1000 µM [3] [%],inhibition at 1000 µM [4] [%],inhibition at 1000 µM [5] [%]
"CC[C@@H]1CN[C@H]2C[C@@H](O)[C@H](O)[C@@H](O)[C@H]12 [Compound 10, (3S,3aR,4S,5S,6R,7aS)-3-Ethyloctahydro-1H-indole-4,5,6-triol]",4.1,15.9,0,7.5,18.1
"CC[C@H]1CN[C@H]2C[C@@H](O)[C@H](O)[C@@H](O)[C@H]12 [Compound 13, (3R,3aR,4S,5S,6R,7aS)-3-ethyloctahydro-1H-indole-4,5,6-triol]",0,0,0,12.9,12.3
